Earlier results on 2 compounds are cited in patent US20060281913A1, “Process for the production of crystalline xylose from sugar cane bagasse, crystalline xylose obtained by said process, process for the production of xylitol from the said xylose and crystalline xylitol obtained thereby” (priority 2003, published 2006).

The conditions of data set [1]: relative to sucrose.

Read-outs that look alike come from different tables or passages of the source.

On to `OC[C@@H](O)[C@H](O)[C@@H](O)CO` [crystalline xylitol, xylitol], for which the “solubility in methanol, ethanol and isopropanol” value is “low solubility”; the solubility in water entry was “high solubility”. Moreover, the sweetening power result in data set [1] (in words) is reported as “equivalent to that of sucrose”.
`O=C[C@H](O)[C@@H](O)[C@H](O)CO` [crystalline xylose, xylose]: the “solubility in methanol, ethanol and isopropanol” value is “sparingly soluble”; the solubility in water result is recorded as “highly soluble”. The sweetening power in data set [1] (data collected from the literature) is ~67 % that of sucrose.
